Results published in US20250115577A1, “BCL-2 Inhibitors” (Eil Therapeutics, Inc., priority 2021, published 2025).

Assays:
[1] = molecular target: BCL-xL (Homo sapiens (Human), UniProt Q07817); test: BCL-xL TR-FRET Assay (primary PPI inhibition); type: binding; conditions: 60 min incubation, read-out: BCLxL IC50
Experimental: Example B. BCL-xL TR-FRET Assay (BPS Bioscience, #50223)
The following assay concentrations and times were used: 10.5 ng of BCL-xL, 5 μL of 1:120 anti-His Tb-labeled donor, 5 μL of 1:120 Dye-labeled acceptor, 5 μL of 1:96 BCL-xL Peptide Ligand, 2 μL of 200× test compound, with 60 min incubation time (final concentration of DMSO 0.5%). The results of the assay were read using a plate reader with the following parameters: TR FRET, 340ex/620 and 665em; 60 usec Delay; and 500 usec integration.
(§1) Instrumentation: CLARIOstar Plus (BMG LABTECH); Biomek FX for liquid handling (Beckman Coulter).

[2] = molecular target: BCL-2 (Homo sapiens (Human), UniProt P10415); test: BCL-2 TR-FRET Assay (primary PPI inhibition); type: binding; conditions: 60 min incubation, read-out: BCL2 IC50
Experimental: Example A. BCL-2 TR-FRET Assay (BPS Bioscience, #50222)
(§2) The following assay concentrations and times were used: 3 ng of BCL-2, 5 μL of 1:100 anti-His Tb-labeled donor, 5 μL of 1:100 Dye-labeled acceptor, 5 µL of 1:40 BCL-2 Peptide Ligand, and 2 μL of 200× test compound, with 60 min incubation time (final concentration of DMSO 0.5%). The results of the assay were read using a plate reader with the following parameters: TR FRET, 340ex/620 and 665em; 60 usec Delay; and 500 usec integration.
as §1

[3] = Cell viability assay (CellTiter-Glo), HEK293; type: cell-based; conditions: human, HEK293 cells, 3 days of incubation
Experimental: (§3) Example D. Cell Viability Assays (Cell lines HEK293, RS4-11, MOLT-4)
(§4) Cells were seeded at a density of 4000 cells per well in the 384-well clear bottom plate (Greiner Cat #781090) to the 45 μL total volume of either DMEM (PanEco, Cat #C420, for HEK293) or RPMI (PanEco, Cat #C330, for other cell lines) with 10% FBS(HyClone Cat #SV30160.03). Prior to adding compounds, the HEK293 cells were allowed to adhere overnight at 37° C. and 5% CO2. The 500× compounds solutions in DMSO(Sigma Cat #D2650) were dispersed into a 384-well compound plate (Diamond Well Plate, Axigen, Cat #P-384-120 SQ-C—S) including only DMSO control. The 1 μL aliquots of the 500× compounds from the compound plate were added to 49 μL of culture medium in the Dilution plate (Diamond Well Plate, Axigen, Cat #P-384-120 SQ-C—S), mixed and then the 5 μL aliquts of the 10× compound solutions were transferred to cells followed by centrifugation at 100 g for 1 min. Final DMSO concentration was 0.2%. After 3 days of incubation the 10 μL aliquots of CellTiter-Glo (Promega, CAT #G7572) were added to the cells, plate was centrifuged at 100 g for 1 min and the luminescence was measured on the CLARIOstar Plus (BMG LABTECH) instrument.
as §1

[4] = tested on: MOLT-4 cells; test: Cell viability assay (CellTiter-Glo), MOLT-4; type: cell-based; conditions: Homo sapiens, 72 h, 3 days of incubation
Experimental: as §3, §4, §1

[5] = tested on: RS4-11 cells; test: Cell viability assay (CellTiter-Glo), RS4-11; type: cell-based; conditions: Homo sapiens, RS4-11, 72 h, 3 days of incubation
Experimental: as §3, §4, §1

[6] = molecular target: BCL-2 [G101V] (Homo sapiens (Human), UniProt P10415, G101V); test: BCL-2 [G101V] TR-FRET Assay (primary PPI inhibition); type: binding; conditions: 60 min incubation, read-out: BCL2[G101V] IC50
Experimental: Example C. BCL-2 [G101V]TR-FRET Assay
as §2, with “0.22 ng/μl” for “3 ng”, “BCL-2 (SinoBiological, #10195-H08E1),” for “BCL-2,”, “μL” for “µL”, “Ligand (BPS Bioscience, #50223),” for “Ligand,”
as §1

[7] = tested on: caspase-3 and -7 activities in RS4-11 cells; test: Caspase-3/7 activation (Caspase-Glo 3/7) in RS4-11 cells; type: cell-based; conditions: Homo sapiens, 3.5 h, read-out: Cas-3/7 EC50
Experimental: Example E. Caspase-3/7 Activation
Assay Principle: The Caspase-Glo 3/7 Assay is homogeneous, luminescent assay that measures caspase-3 and -7 activities. The assay provides a luminogenic caspase-3/7 substrate, which contains the tetrapeptide sequence DEVD, in a reagent optimized for caspase activity.
Assay Procedure: Incubate RS4-11 (ATCC, CRL-1873) cells in the 384-well white plate (Corning, #3570) with varying concentrations of test compounds for 3.5 h in a humidified incubator at 37° C. and 5% CO2 […]. Add 15 μL of the Caspase-Glo (Promega, #8212) reagent to each well and to incubate the plate for 30 min at rt. Read on the CLARIOstar Plus (BMG LABTECH) instrument.
as §1

Sequence of BCL-xL (Q07817 whole entry): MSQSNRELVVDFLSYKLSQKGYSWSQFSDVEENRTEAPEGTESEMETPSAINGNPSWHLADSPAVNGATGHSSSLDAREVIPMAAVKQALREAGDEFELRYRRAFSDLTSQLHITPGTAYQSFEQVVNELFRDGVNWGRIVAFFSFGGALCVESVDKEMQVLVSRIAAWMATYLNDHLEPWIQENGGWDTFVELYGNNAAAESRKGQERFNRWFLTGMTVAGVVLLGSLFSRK

SMILES | IC50 [1] | IC50 [2] | CC50 at 3 days [3] | CC50 [4] | CC50 [5] | IC50 [6] | EC50 [7]
COc1cc(C(=O)N2Cc3ccccc3C[C@H]2CN2CCOCC2)c(-c2cc(C(=O)N(Cc3cccc(OC)c3C)c3ccc(O)cc3)c(C)n2C)cc1Cl [Compound 11, 5-[5-chloro-4-methoxy-2-[(3S)-3-(morpholinomethyl)-3,4-dihydro-1H-isoquinoline-2-carbonyl]phenyl]-N-(4-hydroxyphenyl)-N-[(3-methoxy-2-methyl-phenyl)methyl]-1,2-dimethyl-pyrrole-3-carboxamide] | 2000 to 5000 nM | 10 to 50 nM | > 25000 nM | ≤ 5000 nM | 100 to 200 nM | 100 to 1000 nM | ≤ 200 nM
COc1cccc(CN(C(=O)c2cc(-c3cc(Cl)ccc3C(=O)N3Cc4ccccc4C[C@H]3CN3CCOCC3)n(C)c2C)c2ccc(O)cc2)c1C [Compound 7, 5-[5-chloro-2-[(3S)-3-(morpholinomethyl)-3,4-dihydro-1H-isoquinoline-2-carbonyl]phenyl]-N-(4-hydroxyphenyl)-N-[(3-methoxy-2-methyl-phenyl)methyl]-1,2-dimethyl-pyrrole-3-carboxamide] | 2000 to 5000 nM | ≤ 5 nM | 10000 to 25000 nM | 5000 to 10000 nM | ≤ 100 nM | ≤ 100 nM | ≤ 200 nM
COc1cccc(CN(C(=O)c2cc(-c3cc(Cl)c(C#N)cc3C(=O)N3Cc4ccccc4C[C@H]3CN3CCOCC3)n(C)c2C)c2ccc(O)cc2)c1C [Compound 9, 5-[5-chloro-4-cyano-2-[(3S)-3-(morpholinomethyl)-3,4-dihydro-1H-isoquinoline-2-carbonyl]phenyl]-N-(4-hydroxyphenyl)-N-[(3-methoxy-2-methyl-phenyl)methyl]-1,2-dimethyl-pyrrole-3-carboxamide] | 2000 to 5000 nM | ≤ 5 nM | 10000 to 25000 nM | ≤ 5000 nM | > 200 nM | 100 to 1000 nM | > 500 nM
COc1cccc(CN(C(=O)c2cc(-c3cc(Cl)ccc3C(=O)N3Cc4ccccc4C[C@H]3CN3CCOCC3)n3c2CCCC3)c2ccc(Cl)cc2)c1C [Compound 2, 3-[5-chloro-2-[(3S)-3-(morpholinomethyl)-3,4-dihydro-1H-isoquinoline-2-carbonyl]phenyl]-N-(4-chlorophenyl)-N-[(3-methoxy-2-methyl-phenyl)methyl]-5,6,7,8-tetrahydroindolizine-1-carboxamide] | > 5000 nM | 10 to 50 nM |  |  |  | > 1000 nM | > 500 nM
COc1cc(-c2cc(C(=O)N(Cc3cccc(OC)c3C)c3ccc(O)cc3)c(C)n2C)c(C(=O)N2Cc3ccccc3C[C@H]2CN2CCOCC2)cc1C#N [Compound 58, 5-[4-cyano-5-methoxy-2-[(3S)-3-(morpholinomethyl)-3,4-dihydro-1H-isoquinoline-2-carbonyl]phenyl]-N-(4-hydroxyphenyl)-N-[(3-methoxy-2-methyl-phenyl)methyl]-1,2-dimethyl-pyrrole-3-carboxamide] | 2000 to 5000 nM | > 50 nM | > 25000 nM | ≤ 5000 nM | > 200 nM |  | > 500 nM
COc1cccc(CN(C(=O)c2cc(-c3cc(S(C)(=O)=O)ccc3C(=O)N3Cc4ccccc4C[C@H]3CN3CCOCC3)n(C)c2C)c2ccc(O)cc2)c1C [Compound 49, N-(4-hydroxyphenyl)-N-[(3-methoxy-2-methyl-phenyl)methyl]-1,2-dimethyl-5-[5-methylsulfonyl-2-[(3S)-3-(morpholinomethyl)-3,4-dihydro-1H-isoquinoline-2-carbonyl]phenyl]pyrrole-3-carboxamide] | 2000 to 5000 nM | ≤ 5 nM | > 25000 nM | 5000 to 10000 nM | ≤ 100 nM | ≤ 100 nM | 
COc1cccc(CN(C(=O)c2cc(-c3cc(C(F)F)c(Cl)cc3C(=O)N3Cc4ccccc4C[C@H]3CN3CCOCC3)n(C)c2C)c2ccc(C#N)cc2)c1C [Compound 24, 5-[4-chloro-5-(difluoromethyl)-2-[(3S)-3-(morpholinomethyl)-3,4-dihydro-1H-isoquinoline-2-carbonyl]phenyl]-N-(4-cyanophenyl)-N-[(3-methoxy-2-methyl-phenyl)methyl]-1,2-dimethyl-pyrrole-3-carboxamide] | 2000 to 5000 nM | > 50 nM | > 25000 nM | > 10000 nM | > 200 nM |  | > 500 nM
COc1cccc(CN(C(=O)c2cc(-c3cc(F)c(OC(F)F)cc3C(=O)N3Cc4ccccc4C[C@H]3CN3CCOCC3)n(C)c2C)c2ccc(Cl)cc2)c1C [Compound 26, N-(4-chlorophenyl)-5-[4-(difluoromethoxy)-5-fluoro-2-[(3S)-3-(morpholinomethyl)-3,4-dihydro-1H-isoquinoline-2-carbonyl]phenyl]-N-[(3-methoxy-2-methyl-phenyl)methyl]-1,2-dimethyl-pyrrole-3-carboxamide] | 2000 to 5000 nM | > 50 nM | > 25000 nM | ≤ 5000 nM | > 200 nM |  | > 500 nM
COc1ccccc1CN(C(=O)c1cc(-c2cc(Cl)ccc2C(=O)N2Cc3ccccc3C[C@H]2CN2CCOCC2)n(C)c1C)c1ccc2[nH]ncc2c1 [Compound 69, 5-[5-chloro-2-[(3S)-3-(morpholinomethyl)-3,4-dihydro-1H-isoquinoline-2-carbonyl]phenyl]-N-(1H-indazol-5-yl)-N-[(2-methoxyphenyl)methyl]-1,2-dimethyl-pyrrole-3-carboxamide] | > 5000 nM | 10 to 50 nM | > 25000 nM | > 10000 nM | > 200 nM |  | > 500 nM
COc1cccc(CN(C(=O)c2cc(-c3cc(NC(C)=O)ccc3C(=O)N3Cc4ccccc4C[C@H]3CN3CCOCC3)n(C)c2C)c2ccc(O)cc2)c1C [Compound 48, 5-[5-acetamido-2-[(3S)-3-(morpholinomethyl)-3,4-dihydro-1H-isoquinoline-2-carbonyl]phenyl]-N-(4-hydroxyphenyl)-N-[(3-methoxy-2-methyl-phenyl)methyl]-1,2-dimethyl-pyrrole-3-carboxamide] | 2000 to 5000 nM | 5 to 10 nM |  |  |  | 100 to 1000 nM | 
N#Cc1ccccc1CN(C(=O)c1cc(-c2cc(Cl)ccc2C(=O)N2Cc3ccccc3C[C@H]2CN2CCOCC2)n2c1CCCC2)c1ccc(Cl)cc1 [Compound 1, 3-[5-chloro-2-[(3S)-3-(morpholinomethyl)-3,4-dihydro-1H-isoquinoline-2-carbonyl]phenyl]-N-(4-chlorophenyl)-N-[(2-cyanophenyl)methyl]-5,6,7,8-tetrahydroindolizine-1-carboxamide] | > 5000 nM | > 50 nM |  |  |  | > 1000 nM | > 500 nM
